Reference: patent US10370401B2, “Substituted nucleosides, nucleotides and analogs thereof” (Alios BioPharma, Inc., priority 2013, dated 2019)
Where two headings read alike, the source gives them in different places.

Assays:
Human rhinovirus 1B = assay: Picornavirus assay (CPE, CellTiter-Glo, HeLa-OHIO cells); type: cell-based; conditions: Rhinovirus A, 96 h
subgenomic HCV replicon = assay: HCV replicon assay (Huh-7, luciferase reporter); type: cell-based; conditions: Hepatitis C virus
[1] = target: human rhinovirus 16 polymerase (HRV16pol) (Human rhinovirus 16, UniProt Q82122); assay: biochemical; conditions: HRV16pol, 2.5 h at 30° C., mean of several independent experiments; read-out: IC50
NS5B570-Con1 (Delta-21) = NS5B570-Con1 (Delta-21) (Hepatitis C virus genotype 1b, UniProt Q9WMX2); assay: biochemical; set-up: species or system HCV
[2] = Human rhinovirus 1B, HeLa-OHIO cells, 4 d at 33° C., read-out: EC50
[3] = Huh-7 HCV replicon cells, luciferase, 72 hours, read-out: EC50

human rhinovirus 16 polymerase (HRV16pol), sequence (Q82122 1694-2153 limits assumed): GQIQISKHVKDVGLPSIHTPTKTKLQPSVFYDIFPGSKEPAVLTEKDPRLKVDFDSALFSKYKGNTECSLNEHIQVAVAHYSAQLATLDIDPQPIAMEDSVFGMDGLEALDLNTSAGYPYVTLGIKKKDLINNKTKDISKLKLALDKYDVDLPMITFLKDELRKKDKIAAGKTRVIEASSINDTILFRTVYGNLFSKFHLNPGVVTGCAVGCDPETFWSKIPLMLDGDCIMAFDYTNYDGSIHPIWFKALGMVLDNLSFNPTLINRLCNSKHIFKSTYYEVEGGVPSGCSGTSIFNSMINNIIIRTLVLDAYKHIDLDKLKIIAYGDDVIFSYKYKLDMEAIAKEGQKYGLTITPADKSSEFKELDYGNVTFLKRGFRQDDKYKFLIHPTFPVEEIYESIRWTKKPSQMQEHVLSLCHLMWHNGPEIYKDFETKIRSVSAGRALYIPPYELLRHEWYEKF

SMILES | IC50 [1] [µM] | IC50 (NS5B570-Con1 (Delta-21)) [µM] | further results
CCOc1nc(N)nc2c1ncn2[C@@H]1O[C@](F)(COP(=O)(N[C@@H](C)C(=O)OCC(C)(C)C)Oc2ccccc2)[C@@H](F)[C@@]1(C)O (stereo partly shown) [Compound 21] |  |  | EC50 (Human rhinovirus 1B): < 1 µM; EC50 (subgenomic HCV replicon; Huh-7, 72 h): 1 to 10 µM
CCOc1nc(N)nc2c1ncn2[C@@H]1O[C@](F)(COP(=O)(N[C@@H](C)C(=O)OC(C)C)Oc2ccccc2)[C@@H](F)[C@@]1(C)O (stereo partly shown) [Compound 22] |  |  | EC50 (Human rhinovirus 1B): 1 to 10 µM; EC50 (subgenomic HCV replicon; Huh-7, 72 h): 1 to 10 µM
CCOc1nc(N)nc2c1ncn2[C@@H]1O[C@](CF)(COP(=O)(N[C@@H](C)C(=O)OC2CCCCC2)Oc2ccccc2)[C@@H](O)[C@@]1(C)O (stereo partly shown) [Compound 36] |  |  | EC50 (Human rhinovirus 1B): < 1 µM; EC50 (subgenomic HCV replicon; Huh-7, 72 h): < 1 µM
CC(C)OC(=O)OCOP(=O)(OCOC(=O)OC(C)C)OC[C@@]1(CCl)O[C@@H](n2ccc(=O)[nH]c2=O)[C@](C)(O)[C@@H]1O [Compound 43] |  |  | EC50 (Human rhinovirus 1B; [2]): 10 to 100 µM; EC50 (subgenomic HCV replicon; [3]): < 1 µM
CC(C)OC(=O)OCOP(=O)(OCOC(=O)OC(C)C)OC[C@@]1(CF)O[C@@H](n2ccc(=O)n(COC(=O)C(N)C(C)C)c2=O)[C@](C)(O)[C@@H]1O (stereo partly shown) [Compound 52] |  |  | EC50 (Human rhinovirus 1B): < 1 µM; EC50 (subgenomic HCV replicon; Huh-7, 72 h): < 1 µM
CCOc1nc(N)nc2c1ncn2[C@@H]1O[C@](F)(COP(=O)(OCOC(=O)OC(C)C)OCOC(=O)OC(C)C)[C@@H](F)[C@@]1(C)O [Compound 57] |  |  | EC50 (Human rhinovirus 1B; [2]): < 1 µM; EC50 (subgenomic HCV replicon; [3]): < 1 µM
C#C[C@@]1(O)[C@H](O)[C@@](CF)(COP(=O)(OCOC(=O)OC(C)C)OCOC(=O)OC(C)C)O[C@H]1n1cnc2c(N)ncnc21 [Compound 63] |  |  | EC50 (Human rhinovirus 1B; [2]): < 1 µM; EC50 (subgenomic HCV replicon; [3]): 1 to 10 µM
C#C[C@@]1(O)[C@H](O)[C@@](CCl)(COP(=O)(OCOC(=O)OC(C)C)OCOC(=O)OC(C)C)O[C@H]1n1cnc2c(N)ncnc21 [Compound 64] |  |  | EC50 (Human rhinovirus 1B; [2]): 1 to 10 µM; EC50 (subgenomic HCV replicon; [3]): 10 to 100 µM
COC(=O)OCOP(=O)(OCOC(=O)OC)OC[C@@]1(CF)O[C@@H](n2ccc(=O)[nH]c2=O)[C@](C)(O)[C@@H]1O [Compound 65] |  |  | EC50 (Human rhinovirus 1B; [2]): 10 to 100 µM; EC50 (subgenomic HCV replicon; [3]): 10 to 100 µM
CC(=O)OCOP(=O)(OCOC(C)=O)OC[C@@]1(CF)O[C@@H](n2ccc(=O)[nH]c2=O)[C@](C)(O)[C@@H]1O [Compound 67] |  |  | EC50 (subgenomic HCV replicon; [3]): 10 to 100 µM
CC(C)C(=O)OCOP(=O)(OCOC(=O)C(C)C)OC[C@@]1(CF)O[C@@H](n2ccc(=O)[nH]c2=O)[C@](C)(O)[C@@H]1O [Compound 70] |  |  | EC50 (Human rhinovirus 1B; [2]): 1 to 10 µM; EC50 (subgenomic HCV replicon; [3]): 1 to 10 µM
CCOC(=O)OCOP(=O)(OCOC(=O)OCC)OC[C@@]1(CF)O[C@@H](n2ccc(=O)n(COC(=O)C(N)C(C)C)c2=O)[C@](C)(O)[C@@H]1O (stereo partly shown) [Compound 71] |  |  | EC50 (Human rhinovirus 1B): 1 to 10 µM; EC50 (subgenomic HCV replicon; Huh-7, 72 h): 1 to 10 µM
C=C[C@]1(CO)O[C@@H](n2ccc(N)nc2=O)C(F)(F)[C@@H]1O [Compound 75] |  |  | EC50 (Human rhinovirus 1B; [2]): 1 to 10 µM; EC50 (subgenomic HCV replicon; Huh-7, 72 h): 10 to 100 µM
CC(C)OC(=O)OCOP(=O)(OCOC(=O)OC(C)C)OC[C@@]1(CF)O[C@@H](n2cnc3c(N)ncnc32)[C@](C)(O)[C@@H]1O [Compound 84] |  |  | EC50 (Human rhinovirus 1B; [2]): < 1 µM; EC50 (subgenomic HCV replicon; [3]): 1 to 10 µM
[N-]=[N+]=NC[C@]1(CO)O[C@@H](n2ccc(N)nc2=O)[C@H](F)[C@@H]1O [Compound 106] |  |  | EC50 (Human rhinovirus 1B; [2]): 1 to 10 µM; EC50 (subgenomic HCV replicon; [3]): 10 to 100 µM
CC(C)(CO)C(=O)SCCOP(=O)(NCc1ccccc1)OC[C@@]1(CF)O[C@@H](n2ccc(=O)[nH]c2=O)[C@](C)(O)[C@@H]1O (stereo partly shown) [Compound 280] |  |  | EC50 (Human rhinovirus 1B; [2]): 10 to 100 µM; EC50 (subgenomic HCV replicon; [3]): 10 to 100 µM
CC(C)OC(=O)OCOP(=O)(OCOC(=O)OC(C)C)OC[C@@]1(CF)O[C@@H](n2ccc(=O)[nH]c2=O)[C@](C)(O)[C@@H]1OC(=O)[C@H](C)N [Compound 281] |  |  | EC50 (Human rhinovirus 1B): < 1 µM; EC50 (subgenomic HCV replicon; Huh-7, 72 h): < 1 µM
CC(C)OC(=O)OCOP(=O)(OCOC(=O)OC(C)C)OC[C@@]1(CF)O[C@@H](n2ccc(=O)[nH]c2=O)[C@](C)(O)[C@@H]1OC(=O)CN [Compound 282] |  |  | EC50 (Human rhinovirus 1B): < 1 µM; EC50 (subgenomic HCV replicon; Huh-7, 72 h): < 1 µM
CC(C)OC(=O)[C@H](C)NP(=O)(OCCSC(=O)C(C)(C)CO)OC[C@@]1(CF)O[C@@H](n2ccc(=O)[nH]c2=O)[C@](C)(O)[C@@H]1O (stereo partly shown) [Compound 283] |  |  | EC50 (Human rhinovirus 1B; [2]): 10 to 100 µM; EC50 (subgenomic HCV replicon; [3]): 1 to 10 µM
C=C[C@]1(COP(=O)(O)OP(=O)(O)OP(=O)(O)O)O[C@@H](n2ccc(N)nc2=O)C(F)(F)[C@@H]1O [compound 79] | < 10 | 10 to 100 | 
Nc1ccn([C@@H]2O[C@](CF)(COP(=O)(O)OP(=O)(O)OP(=O)(O)O)[C@@H](O)C2(F)F)c(=O)n1 [compound 82] | < 1 | 10 to 100 | 
C#C[C@@]1(O)[C@H](O)[C@@](CF)(COP(=O)(O)OP(=O)(O)OP(=O)(O)O)O[C@H]1n1cnc2c(N)ncnc21 [compound 93] | < 1 | 10 to 100 | 

SMILES | IC50 [1] [µM] | IC50 (NS5B570-Con1 (Delta-21)) [µM] | further results
C#C[C@@]1(O)[C@H](O)[C@@H](COP(=O)(O)OP(=O)(O)OP(=O)(O)O)O[C@H]1n1ccc2c(N)ncnc21 [compound 205] | < 1 | < 1 | 
C[C@]1(N=[N+]=[N-])[C@H](n2ccc(N)nc2=O)O[C@](F)(COP(=O)(O)OP(=O)(O)OP(=O)(O)O)[C@H]1O [compound 208] | < 10 | < 1 | 
C=C[C@]1(O)[C@H](n2ccc(=O)[nH]c2=O)O[C@](F)(COP(=O)(O)OP(=O)(O)OP(=O)(O)O)[C@H]1O [compound 236] | < 10 | 1 to 10 | 
CC[C@]1(O)[C@H](n2ccc(=O)[nH]c2=O)O[C@](F)(COP(=O)(O)OP(=O)(O)OP(=O)(O)O)[C@H]1O [compound 239] | < 10 | 10 to 100 | 
C[C@]1(O)[C@H](n2cnc3c(N)ncnc32)O[C@](F)(COP(=O)(O)OP(=O)(O)OP(=O)(O)O)[C@H]1O [compound 240] | < 1 | < 1 | 
C[C@]1(O)[C@H](n2ccc(N)nc2=O)O[C@](C)(COP(=O)(O)OP(=O)(O)OP(=O)(O)O)[C@H]1O [compound 243] | < 10 | 1 to 10 | 
C[C@@]1(O)[C@H](O)[C@@](CCl)(COP(=O)(O)OP(=O)(O)OP(=O)(O)O)O[C@H]1n1ccc(=O)[nH]c1=O [compound 244] | < 10 | < 1 | 
C#C[C@@]1(O)[C@H](O)[C@@](CCl)(COP(=O)(O)OP(=O)(O)OP(=O)(O)O)O[C@H]1n1cnc2c(N)ncnc21 [compound 245] | < 1 | 10 to 100 | 
C[C@@]1(Cl)[C@H](O)[C@@H](COP(=O)(O)OP(=O)(O)OP(=O)(O)O)O[C@H]1n1cnc2c(=O)[nH]c(N)nc21 [compound 246] | < 1 | < 1 | 
C[C@@]1(O)[C@H](O)[C@@](CN=[N+]=[N-])(COP(=O)(O)OP(=O)(O)OP(=O)(O)O)O[C@H]1n1ccc(=O)[nH]c1=O [compound 249] | < 100 | 10 to 100 | 
CC#C[C@@]1(O)[C@H](O)[C@@](CF)(COP(=O)(O)OP(=O)(O)OP(=O)(O)O)O[C@H]1n1ccc(=O)[nH]c1=O [compound 252] | < 10 | 1 to 10 | 
C=CC[C@@]1(O)[C@H](O)[C@@](CF)(COP(=O)(O)OP(=O)(O)OP(=O)(O)O)O[C@H]1n1ccc(=O)[nH]c1=O [compound 253] | < 10 | 10 to 100 | 
C[C@@]1(O)[C@H](O)[C@@](CF)(COP(=O)(O)OP(=O)(O)OP(=O)(O)O)O[C@H]1n1ccc2c(N)ncnc21 [compound 254] | < 1 | < 1 | 
C=C=C[C@@]1(O)[C@H](O)[C@@](CF)(COP(=O)(O)OP(=O)(O)OP(=O)(O)O)O[C@H]1n1ccc(=O)[nH]c1=O [compound 255] | < 10 | 1 to 10 | 
O=c1ccn([C@@H]2O[C@](CF)(COP(=O)(O)OP(=O)(O)OP(=O)(O)O)[C@@H](O)[C@]2(O)CF)c(=O)[nH]1 [compound 256] | < 10 | 10 to 100 | 
Nc1ccn([C@@H]2O[C@](CF)(COP(=O)(O)OP(=O)(O)OP(=O)(O)O)[C@@H](O)[C@]2(O)CF)c(=O)n1 [compound 258] | < 1 | 10 to 100 | 
C[C@]1(O)[C@H](n2ccc(=O)[nH]c2=O)O[C@@](COP(=O)(O)OP(=O)(O)OP(=O)(O)O)(C(F)F)[C@H]1O [compound 273] | < 10 | 10 to 100 | 
Nc1ccn([C@@H]2O[C@H](COP(=O)(O)OP(=O)(O)OP(=O)(O)O)[C@@H](O)[C@]2(O)CF)c(=O)n1 [compound 276] | < 10 | < 1 | 
C[C@]1(COP(=O)(O)OP(=O)(O)OP(=O)(O)O)O[C@@H](n2ccc(N)nc2=O)C(F)(F)[C@@H]1O [compound 277] | < 10 | 10 to 100 | 
Nc1ncnc2c1ncn2[C@@H]1O[C@H](COP(=O)(O)OP(=O)(O)OP(=O)(O)O)[C@@H](O)[C@]1(O)CF [compound 278] | < 100 | 1 to 10 | 
C#C[C@]1(COP(=O)(O)OP(=O)(O)OP(=O)(O)O)O[C@@H](n2ccc(N)nc2=O)C(F)(F)[C@@H]1O [compound 279] | < 10 | 10 to 100 | 
